Several values for one entry are separate records, joined by “and”; a condition that tells them apart may be missing. Equal values may be shown once. Inconclusive results and toxic doses are left out. The calls were made as follows: active = survival T/C of 150% or more; inactive = T/C below 125% in these data.
Tested on: P388 leukemia ip, CD2F1 mice, survival T/C
Experiment: NCI In Vivo Anticancer Drug Screen. Data for tumor model P388 Leukemia (intraperitoneal) in CD2F1 (CDF1) mice
Settings: endpoint: median survival time, higher = longer survival
Method in brief: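 Mice carrying the transplanted tumor received test compound or vehicle. Survival was recorded in each group, and the value is the treated-group measurement divided by that of the vehicle-treated control group.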

[1] = dose: 50.0 mg/kg/injection, schedule: Q01DX009 (ip), vehicle: saline with Tween-80
[2] = dose: 100.0 mg/kg/injection, schedule: Q01DX009 (ip), vehicle: saline with Tween-80
[3] = dose: 50.0 mg/kg/injection, schedule: Q01DX009 (ip), vehicle: saline
[4] = dose: 100.0 mg/kg/injection, schedule: Q01DX009 (ip), vehicle: saline
[5] = dose: 200.0 mg/kg/injection, schedule: Q01DX009 (ip), vehicle: saline
[6] = dose: 50.0 mg/kg/injection, schedule: Q01DX005 (ip), vehicle: Klucel (hydroxypropylcellulose) (HPC)
[7] = dose: 100.0 mg/kg/injection, schedule: Q01DX005 (ip), vehicle: Klucel (hydroxypropylcellulose) (HPC)
[8] = dose: 200.0 mg/kg/injection, schedule: Q01DX005 (ip), vehicle: Klucel (hydroxypropylcellulose) (HPC)
[9] = dose: 25.0 mg/kg/injection, schedule: Q01DX009 (ip), vehicle: saline with Tween-80
[10] = dose: 50.0 mg/kg/injection, schedule: Q01DX009 (ip), vehicle: Klucel (hydroxypropylcellulose) (HPC)
[11] = dose: 100.0 mg/kg/injection, schedule: Q01DX009 (ip), vehicle: Klucel (hydroxypropylcellulose) (HPC)
[12] = dose: 200.0 mg/kg/injection, schedule: Q01DX009 (ip), vehicle: Klucel (hydroxypropylcellulose) (HPC)
[13] = dose: 200.0 mg/kg/injection, schedule: Q01DX009 (ip), vehicle: saline with Tween-80

Measured: T/C

COC(=O)c1cc(-c2ccncc2)[nH]c(=O)c1C#N
inactive: dose: 60.0 mg/kg/injection, schedule: Q01DX005 (ip), vehicle: saline 101 % of control | dose: 120.0 mg/kg/injection, schedule: Q01DX005 (ip), vehicle: saline 99 % of control | dose: 240.0 mg/kg/injection, schedule: Q01DX005 (ip), vehicle: saline 94 % of control

Cn1cc(O)c(=O)n(C)c1=O
inactive: dose: 100.0 mg/kg/injection, schedule: Q04DX003 (ip), vehicle: saline with Tween-80 99 % of control | dose: 200.0 mg/kg/injection, schedule: Q04DX003 (ip), vehicle: saline with Tween-80 105 % of control | dose: 400.0 mg/kg/injection, schedule: Q04DX003 (ip), vehicle: saline with Tween-80 100 % of control

COc1cc(C(=O)OC(C)CC2(c3ccccc3)C(=O)NC(=O)NC2=O)cc(OC)c1OC (configuration not stated)
inactive: [1] 90 % of control | [2] 90 % of control

c1cc2n(n1)CCN2
inactive: dose: 12.5 mg/kg/injection, schedule: Q01DX009 (ip), vehicle: saline 104 % of control | dose: 25.0 mg/kg/injection, schedule: Q01DX009 (ip), vehicle: saline 109 % of control | [3] 100 % of control and 104 % of control | dose: 80.0 mg/kg/injection, schedule: Q01DX009 (ip), vehicle: saline 111 % of control | [4] 111 % of control and 120 % of control | dose: 120.0 mg/kg/injection, schedule: Q01DX009 (ip), vehicle: saline 113 % of control | [5] 100 % of control | dose: 225.0 mg/kg/injection, schedule: Q03DX003 (ip), vehicle: saline 111 % of control | dose: 264.0 mg/kg/injection, schedule: Q04DX003 (ip), vehicle: saline 100 % of control | dose: 300.0 mg/kg/injection, schedule: Q03DX003 (ip), vehicle: saline 111 % of control | dose: 375.0 mg/kg/injection, schedule: Q03DX003 (ip), vehicle: saline 124 % of control | dose: 400.0 mg/kg/injection, schedule: Q04DX003 (ip), vehicle: saline 118 % of control

O=C(Nc1ccc(-c2ccc(NC(=O)C34CC5CC(CC(C5)C3)C4)cc2)cc1)C12CC3CC(CC(C3)C1)C2
inactive: dose: 25.0 mg/kg/injection, schedule: Q01DX005 (ip), vehicle: Klucel (hydroxypropylcellulose) (HPC) 98 % of control and 100 % of control | [6] 101 % of control | [7] 89 % of control and 92 % of control | [8] 97 % of control

O=C1CNC(=O)C(O)N1 (configuration not stated)
inactive: dose: 50.0 mg/kg/injection, schedule: Q01DX005 (ip), vehicle: saline with Tween-80 93 % of control | dose: 100.0 mg/kg/injection, schedule: Q01DX005 (ip), vehicle: saline with Tween-80 100 % of control | dose: 200.0 mg/kg/injection, schedule: Q01DX005 (ip), vehicle: saline with Tween-80 97 % of control

CCOC(CBr)(OCC)OCC
inactive: [9] 94 % of control | [1] 113 % of control | [2] 113 % of control

CCOC(=O)N(C)N=NC
inactive: dose: 3.75 mg/kg/injection, schedule: Q01DX005 (ip), vehicle: saline 100 % of control | dose: 7.5 mg/kg/injection, schedule: Q01DX005 (ip), vehicle: saline 107 % of control and 109 % of control | dose: 15.0 mg/kg/injection, schedule: Q01DX005 (ip), vehicle: saline 105 % of control | dose: 30.0 mg/kg/injection, schedule: Q01DX005 (ip), vehicle: saline 120 % of control

CCOC(=O)Cc1cc(=O)oc2c(CN3CCN(c4ccc(C)cc4)CC3)c(O)ccc12
inactive: dose: 60.0 mg/kg/injection, schedule: Q01DX005 (ip), vehicle: saline with Tween-80 100 % of control | dose: 120.0 mg/kg/injection, schedule: Q01DX005 (ip), vehicle: saline with Tween-80 87 % of control | dose: 240.0 mg/kg/injection, schedule: Q01DX005 (ip), vehicle: saline with Tween-80 99 % of control

c1cc2c3c(cccc3c1)C(C1Cc3cccc4cccc1c34)C2 (configuration not stated)
inactive: [10] 97 % of control | [11] 100 % of control | [12] 88 % of control

O=C1CSc2ccccc2N1
inactive: dose: 6.25 mg/kg/injection, schedule: Q01DX009 (ip), vehicle: suspension in saline 102 % of control | dose: 12.5 mg/kg/injection, schedule: Q01DX009 (ip), vehicle: Klucel (hydroxypropylcellulose) (HPC) 105 % of control | dose: 12.5 mg/kg/injection, schedule: Q01DX009 (ip), vehicle: suspension in saline 104 % of control | dose: 25.0 mg/kg/injection, schedule: Q01DX009 (ip), vehicle: Klucel (hydroxypropylcellulose) (HPC) 97 % of control | dose: 25.0 mg/kg/injection, schedule: Q01DX009 (ip), vehicle: suspension in saline 99 % of control | [10] 88 % of control and 95 % of control | dose: 50.0 mg/kg/injection, schedule: Q01DX009 (ip), vehicle: suspension in saline 104 % of control | [12] 100 % of control | dose: 400.0 mg/kg/injection, schedule: Q01DX009 (ip), vehicle: Klucel (hydroxypropylcellulose) (HPC) 99 % of control

CCCCCCC(=O)C(=O)c1ccc(O)cc1O
inactive: [10] 113 % of control | [11] 109 % of control | [12] 109 % of control

COC(=O)C1c2c(C)cc3n2C(C=C(C)C3)C1C(=O)OC (configuration not stated)
inactive: dose: 100.0 mg/kg/injection, schedule: Q04DX003 (ip), vehicle: Klucel (hydroxypropylcellulose) (HPC) 100 % of control | dose: 200.0 mg/kg/injection, schedule: Q04DX003 (ip), vehicle: Klucel (hydroxypropylcellulose) (HPC) 105 % of control | dose: 400.0 mg/kg/injection, schedule: Q04DX003 (ip), vehicle: Klucel (hydroxypropylcellulose) (HPC) 95 % of control

C=C1C(=O)OC2/C=C(/C)C3OC3/C=C(/C(=O)OC)C(OC(C)=O)C(OC(=O)C3(C)OC3C)C12 (configuration not stated)
inactive: dose: 1.5 mg/kg/injection, schedule: Q01DX009 (ip), vehicle: Klucel (hydroxypropylcellulose) (HPC) 124 % of control | dose: 12.0 mg/kg/injection, schedule: Q01DX009 (ip), vehicle: Klucel (hydroxypropylcellulose) (HPC) 86 % of control

CC1CN(C(=O)Nc2c(C(C)C)cccc2C(C)C)CC(C)O1 (configuration not stated)
inactive: [1] 96 % of control | [2] 90 % of control

Cc1ccn(C)c(=N)c1
inactive: [1] 118 % of control | [2] 100 % of control | [13] 104 % of control

O=c1cccccc1O.O=c1cccccc1O.O=c1cccccc1O.[Ru]
inactive: [6] 96 % of control | [7] 100 % of control | [8] 116 % of control

CCCOC(=O)C(F)C(Br)C(=O)OCCC (configuration not stated)
inactive: [9] 100 % of control and 107 % of control | [1] 105 % of control and 120 % of control | [2] 111 % of control and 118 % of control | [13] 123 % of control

CCCS(=N)(=O)CCC(N)C(=O)O (configuration not stated)
inactive: dose: 25.0 mg/kg/injection, schedule: Q01DX005 (ip), vehicle: saline 93 % of control | dose: 50.0 mg/kg/injection, schedule: Q01DX005 (ip), vehicle: saline 98 % of control | dose: 100.0 mg/kg/injection, schedule: Q01DX005 (ip), vehicle: saline 107 % of control | dose: 200.0 mg/kg/injection, schedule: Q01DX005 (ip), vehicle: saline 112 % of control

Cn1cnc([N+](=O)[O-])c1[Se]c1ncnc2c1c(C#N)cn2C1OC(CO)C(O)C1O (configuration not stated)
inactive: dose: 12.5 mg/kg/injection, schedule: Q04DX003 (ip), vehicle: saline 103 % of control | dose: 25.0 mg/kg/injection, schedule: Q04DX003 (ip), vehicle: saline 116 % of control | dose: 50.0 mg/kg/injection, schedule: Q04DX003 (ip), vehicle: saline 116 % of control

C[SiH](C)c1ccc(Cl)cc1
inactive: [3] 99 % of control | [4] 102 % of control | [5] 100 % of control

CC(=O)C1C(=O)C(=O)N(c2cc(C)ccc2O)C1=O (configuration not stated)
inactive: [10] 106 % of control | [11] 107 % of control | [12] 104 % of control

From PubChem BioAssay AID330 (DTP/NCI, 2004)
